# Experiment: Inhibition of bovine liver beta-glucosidase
smiles,measurement,value
CC[C@@H]1NC[C@@H](O)[C@@H](O)[C@H](O)[C@H]1O,IC50,487 µM
